Columns and labels:
[1] = tested on: mature hiPSC-CM monolayers; assay: 96-well optical mapping of action potentials (FluoVolt), mature monolayers; format: cell-based, human; conditions: for Maximum APD 80 Prolongation Risk Score (Mature hiPSC-CM): maximal effect on APD independent of dose, APD80 divided by vehicle control APD80, 30 min treatment, concentrations up to 10 µM; for effect on action potential duration (APD80), mature monolayers: spontaneous action potentials, result in words
Description: (§1) hiPSC-CMs were used from two different commercial sources: Cellular Dynamics International (CDI, Madison WI) and Cellartis (Takara Bio USA). Custom made 96-well plates with inserts of PDMS (Polydimethylsiloxane) were generated essentially as before. PDMS vulcanized silicone transparent sheeting was obtained from SMI (Specialty Manufacturing, Inc, Saginaw, MI) with 40D (D, Durometer or ≈1000 kPa) hardness and 9 mm diameter coverslips were cut out to fit in each well of 96 well plates. PDMS coverslips were manually added to each well of 96 well plates (Corning) and each plate was subsequently sterilized via ethylene oxide sterilization. PDMS coverslips were then matrigel-coated (500 μg/mL; BD Biosciences, San Jose, CA) prior to plating hiPSC-CMs. Thawing and plating of cryopreserved vials of cells into 96-well plates was as essentially described before. Briefly, 5 × 10^4 cells were plated per well and allowed to form continuous monolayers and maintained in RPMI (Life Technologies) media supplemented with B27 + insulin (Life Technologies). Monolayers were maintained in culture for seven days before electrophysiological testing. Immature fetal-like hiPSC-CM monolayers were generated in 96 well plates without the PDMS coverslip inserts. Fetal-like hiPSC-CMs were also plated on matrigel coated plastic bottoms.
(§2) Optical mapping was performed as essentially described recently[22] with slight modification. A schematic of the 96-well plate optical mapping set up is shown in supplemental Fig. 1. In this assay a 96-well plate is positioned below a high speed CCD camera (200 fps, 80 × 80 pixels) on a heating block to enable recording at physiological temperature (37 °C). hiPSC-CM monolayers were loaded with the membrane potential dye called FluoVolt™ which is commercially available (ThermoFisher Scientific, F10488). Blue LED illumination was used and spontaneous or electrically excited action potentials were recorded with the CCD camera via appropriate emission filter (515 nm, green light, Chroma). For calcium flux quantification monolayers were loaded with fluo-4AM (10 µM). In this assay a 6 × 6 array of wells (supplemental Fig. 1C, 36 wells total) in the 96-well plate could be imaged simultaneously to enable rapid dose response data for all compounds using up to six different doses. Post-acquisition data analysis was done using custom software (Scroll)[22],[25] with automated peak detection capability and automated repolarization quantification to determine APD80 (action potential at 80% of repolarization). […] In some experiments electrical pacing was done to control for rate of activations (supplemental Fig. 3). A custom made frame of field stimulation electrodes was engineered to enable electrical pacing to the 6 × 6 array of wells.
(§3) Action potentials were recorded in the presence of each test compound.
(§4) The effect of each compound to prolong or shorten the APD80 of hiPSC-CM monolayers was quantified relative to vehicle control values obtained in each plate. In other words, the APD80 or CaTD80 quantified at each concentration of each compound was divided by the APD80 or CaTD80 quantified for vehicle control wells. Risk score values were quantified for both fetal-like and mature hiPSC-CM monolayers.

[2] = tested on: fetal-like hiPSC-CM monolayers; assay: 96-well optical mapping of action potentials (FluoVolt), fetal-like monolayers; format: cell-based, human; conditions: for Maximum APD 80 Prolongation Risk Score (Fetal-like hiPSC-CM): maximal effect on APD independent of dose, APD80 divided by vehicle control APD80, 30 min treatment, concentrations up to 10 µM; for effect on action potential duration (APD80), fetal-like monolayers: spontaneous action potentials, result in words
Description: as §1, §2, §3, §4

[3] = set-up: method as in PMID 26893184; conditions: cited from earlier work
[4] = tested on: mature hiPSC-CM monolayers; assay: Calcium flux optical mapping (fluo-4AM), mature monolayers; format: cell-based, human; conditions: dose response; n = 4 per dose
Description: (§5) Optical mapping was performed as essentially described recently[22] with slight modification. A schematic of the 96-well plate optical mapping set up is shown in supplemental Fig. 1. In this assay a 96-well plate is positioned below a high speed CCD camera (200 fps, 80 × 80 pixels) on a heating block to enable recording at physiological temperature (37 °C). hiPSC-CM monolayers were loaded with the membrane potential dye called FluoVolt™ which is commercially available (ThermoFisher Scientific, F10488). Blue LED illumination was used and spontaneous or electrically excited action potentials were recorded with the CCD camera via appropriate emission filter (515 nm, green light, Chroma). For calcium flux quantification monolayers were loaded with fluo-4AM (10 µM). […] Post-acquisition data analysis was done using custom software (Scroll)[22],[25] with automated peak detection capability and automated repolarization quantification to determine APD80 (action potential at 80% of repolarization). […]
(§6) Nilotinib is an anti-cancer kinase inhibitor compound with possible side effects to prolong the QT interval. […] In Fig. 7 calcium transients were recorded using fluo-4AM loaded monolayers to study the effect of nilotinib on intracellular calcium flux dynamics. […]

[5] = tested on: fetal-like hiPSC-CM monolayers; assay: Calcium flux optical mapping (fluo-4AM), fetal-like monolayers; format: cell-based, human; conditions: dose response; n = 4 per dose
Description: as §5, §6

**Q.** For `CCCCc1oc2ccccc2c1C(=O)c1cc(I)c(OCCN(CC)CC)c(I)c1` [Amiodarone, amiodarone], which “Maximum APD 80 Prolongation Risk Score (Mature hiPSC-CM)” value [1] is on record?
**A.** Its value is 1.34.

**Q.** And the “effect on action potential duration (APD80), mature monolayers” value [1]?
**A.** The value was “prolong the APD”.

**Q.** What about the “Maximum APD 80 Prolongation Risk Score (Fetal-like hiPSC-CM)” value [2] of the same molecule?
**A.** Its value is 0.91.

**Q.** What about the “effect on action potential duration (APD80), fetal-like monolayers” value [2] of the same molecule?
**A.** The value was “shortened action potential duration”.

**Q.** What does the source list for `CC(C)COCC(CN(Cc1ccccc1)c1ccccc1)N1CCCC1` (stereo not shown) [Bepridil, bepridil]?
**A.** CiPA risk class for causing Torsade de Pointes (TdP) [3]: high risk; Maximum APD 80 Prolongation Risk Score (Mature hiPSC-CM) [1]: 1.64

**Q.** Which results are given for `COc1cc(N)c(Cl)cc1C(=O)NC1CCN(CCCOc2ccc(F)cc2)CC1OC` (stereo not shown) [Cisapride, cisapride]?
**A.** CiPA risk class for causing Torsade de Pointes (TdP) [3]: intermediate risk; Maximum APD 80 Prolongation Risk Score (Mature hiPSC-CM) [1]: 1.15; Maximum APD 80 Prolongation Risk Score (Fetal-like hiPSC-CM) [2]: 1.49

**Q.** Which results are given for `CN1CCN(C2=Nc3cc(Cl)ccc3Nc3ccccc32)CC1` [Clozapine, clozapine]?
**A.** Maximum APD 80 Prolongation Risk Score (Mature hiPSC-CM) [1]: 1.33; Maximum APD 80 Prolongation Risk Score (Fetal-like hiPSC-CM) [2]: 1.14

**Q.** For `COc1ccc([C@@H]2Sc3ccccc3N(CCN(C)C)C(=O)[C@@H]2OC(C)=O)cc1` [Diltiazem, diltiazem], which “Maximum APD 80 Prolongation Risk Score (Fetal-like hiPSC-CM)” value [2] is on record?
**A.** Its value is 0.97.

**Q.** With `CN(CCOc1ccc(NS(C)(=O)=O)cc1)CCc1ccc(NS(C)(=O)=O)cc1` [Dofetilide, dofetilide] as the molecule, how does the “action potential duration alternans, mature monolayers” value ([1]; electrical pacing 1 Hz, 100 nM) read?
**A.** Its value is “not in the mature hiPSC-CM monolayers”.

**Q.** What about the “effect on action potential duration (APD80), mature monolayers” value [1] of the same molecule?
**A.** Its value is “did not have as severe action potential duration prolongation”.

**Q.** And the “action potential duration alternans, fetal-like monolayers” value ([2]; electrical pacing 1 Hz, 100 nM)?
**A.** Its value is “action potential duration alternans were apparent”.

**Q.** And the “Maximum APD 80 Prolongation Risk Score (Fetal-like hiPSC-CM)” value [2]?
**A.** Its value is 2.14.

**Q.** Which “Maximum APD 80 Prolongation Risk Score (Mature hiPSC-CM)” value [1] does the source give for `COc1cccc2c1C(=O)c1c(O)c3c(c(O)c1C2=O)C[C@@](O)(C(=O)CO)C[C@@H]3O[C@H]1C[C@H](N)[C@H](O)[C@H](C)O1` [Doxorubicin, doxorubicin] here?
**A.** Its value is 1.15.

**Q.** What about the “Maximum APD 80 Prolongation Risk Score (Fetal-like hiPSC-CM)” value [2] of the same molecule?
**A.** The value was 1.15.

**Q.** What does the source list for `CNCCC(Oc1ccc(C(F)(F)F)cc1)c1ccccc1` (stereo not shown) [Fluoxetine, fluoxetine]?
**A.** spontaneous beating rate, mature monolayers [1]: slowed the spontaneous beating rate; quiescence, mature monolayers ([1]; any concentration tested (up to 10.0 µmol L^−1)): did not induce quiescence at any concentration tested; lowest concentration tested, at which action potential duration was already prolonged ([1]; mature monolayers): 1.0 nmol/L; effect on action potential duration (APD80), mature monolayers [1]: prolonged the action potential duration; monolayers in which quiescence was caused ([2]; 10.0 µmol L^−1, 8/8 monolayers): 100%; Maximum APD 80 Prolongation Risk Score (Fetal-like hiPSC-CM) [2]: 1; effect on action potential duration (APD80), fetal-like monolayers [2]: did not detect any APD80 prolongation; spontaneous beating frequency, fetal-like monolayers ([2]; sub-maximal doses (below 10.0 µmol L^−1)): nor alteration of the spontaneous beating frequency

**Q.** What does the source list for `Cc1cn(-c2cc(NC(=O)c3ccc(C)c(Nc4nccc(-c5cccnc5)n4)c3)cc(C(F)(F)F)c2)cn1` [Nilotinib, nilotinib]?
**A.** Maximum APD 80 Prolongation Risk Score (Mature hiPSC-CM) [1]: 1.29; effect on action potential duration (APD80), mature monolayers [1]: APD prolongation was detected; calcium transient duration 80 (CaTD80), mature monolayers [4]: increased calcium transient duration 80 (CaTD80) in a dose dependent manner; Maximum APD 80 Prolongation Risk Score (Fetal-like hiPSC-CM) [2]: 1.36; effect on action potential duration (APD80), fetal-like monolayers [2]: APD prolongation was detected; calcium transient duration 80 (CaTD80), fetal-like monolayers [5]: increased calcium transient duration 80 (CaTD80) in a dose dependent manner

**Q.** For `C=C[C@H]1C[N@@]2CC[C@H]1C[C@@H]2[C@@H](O)c1ccnc2ccc(OC)cc12` [Quinidine, quinidine], which “Maximum APD 80 Prolongation Risk Score (Mature hiPSC-CM)” value [1] is on record?
**A.** Its value is 1.81.

**Q.** What about the “Maximum APD 80 Prolongation Risk Score (Fetal-like hiPSC-CM)” value [2] of the same molecule?
**A.** The value was 1.91.

**Q.** What does the source list for `CC/C(=C(\c1ccccc1)c1ccc(OCCN(C)C)cc1)c1ccccc1` [Tamoxifen, tamoxifen]?
**A.** Maximum APD 80 Prolongation Risk Score (Mature hiPSC-CM) [1]: 1.04; Maximum APD 80 Prolongation Risk Score (Fetal-like hiPSC-CM) [2]: 1.12

**Q.** For `CC(C)(C)c1ccc(C(O)CCCN2CCC(C(O)(c3ccccc3)c3ccccc3)CC2)cc1` (stereo not shown) [Terfenadine, terfenadine], which “CiPA risk class for causing Torsade de Pointes (TdP)” value [3] is on record?
**A.** The value was “intermediate risk”.

**Q.** What about the “Maximum APD 80 Prolongation Risk Score (Mature hiPSC-CM)” value [1] of the same molecule?
**A.** Its value is 1.21.

**Q.** And the “Maximum APD 80 Prolongation Risk Score (Fetal-like hiPSC-CM)” value [2]?
**A.** Its value is 1.43.

**Q.** And the “effect on action potential duration (APD80), fetal-like monolayers” value [2]?
**A.** The value was “more sensitive”.

Reference: publication PMC5653750, “hiPSC-CM Monolayer Maturation State Determines Drug Responsiveness in High Throughput Pro-Arrhythmia Screen” (Scientific Reports, 2017)
